Measurements as given in patent US6987110B2, “Substituted pyrrolines as kinase inhibitors” (Janssen Pharmaceutica N.V., priority 2002, dated 2006).

Legend:
Format in all cases: biochemical
PKC isoform α = PKC isoform α (Homo sapiens, UniProt P17252); experiment: Protein Kinase C histone-based assay, PKC α; conditions: histone III substrate, 30 μM ATP; error approximately within ±30 percent; read-out: PKC Activity, Alpha (IC50, Histone Based Assay)
Protocol: (§1) Compounds were evaluated for PKC selectivity using histone III as the substrate. The PKC isoforms α, β-II or γ were added to a reaction mixture that contained 20 mM HEPES, (pH 7.4), 940 μM CaCl2, 10 mM MgCl2, 1 mM EGTA. 100 μg/mL phosphatidylserine, 20 μg/mL diacylglycerol, 30 μM ATP, 1 μCi (^33P)ATP and 200 μg/mL histone III. The reaction was incubated for 10 min at 30° C. Reactions were terminated by TCA precipitation and spotting on Whatman P81 filters. Filters were washed in 75 mM phosphoric acid and the radioactivity quantified by liquid scintillation counting.

PKC isoform γ = PKC isoform γ (Homo sapiens, UniProt P05129); experiment: Protein Kinase C histone-based assay, PKC γ; conditions: histone III substrate, 30 μM ATP; error approximately within ±30 percent; read-out: PKC Activity, Gamma (IC50, Histone Based Assay)
Protocol: as §1

PKC isoform β-II = PKC isoform β-II (Homo sapiens, UniProt P05771); experiment: Protein Kinase C histone-based assay, PKC β-II; conditions: histone III substrate, 30 μM ATP; error approximately within ±30 percent; read-out: PKC Activity, Beta II (IC50, Histone Based Assay)
Protocol: as §1

[1] = target: T1, recombinant rabbit GSK-3β (Oryctolagus cuniculus, UniProt G1T8E2); experiment: Glycogen Synthase Kinase-3 assay (PPI-2 phosphorylation); conditions: for IC50: PPI-2 substrate, 33P-ATP, 90 minutes at 30° C.
T1 construct: purchased New England Biolabs
Protocol: Compounds were tested for the ability to inhibit recombinant rabbit GSK-3β using the following protocol. The test compound was added to a reaction mixture containing Protein phosphatase inhibitor-2 (PPI-2) (Calbiochem) (45 ng), rabbit GSK-3β (New England Biolabs) (0.75 units) and ^33P-ATP (1 μCi) in 50 mM Tris-HCl (pH 8.0), 10 mM MgCl2, 0.1% BSA, 1 mM DTT and 100 μM Sodium Vanadate. The mixture was reacted for 90 minutes at 30° C. to allow phosphorylation of the PPI-2 protein and then the protein in the reaction was precipitated using 10% TCA. The precipitated protein was collected on filter plates (MultiScreen-DV/Millipore), which were subsequently washed. Finally, the radioactivity was quantified using a TopCount Scintillation Counter (Packard). […] Staurosporine or Valproate, known inhibitors of GSK-3β, were used as a positive control for screening.

T1 sequence (G1T8E2 1-432): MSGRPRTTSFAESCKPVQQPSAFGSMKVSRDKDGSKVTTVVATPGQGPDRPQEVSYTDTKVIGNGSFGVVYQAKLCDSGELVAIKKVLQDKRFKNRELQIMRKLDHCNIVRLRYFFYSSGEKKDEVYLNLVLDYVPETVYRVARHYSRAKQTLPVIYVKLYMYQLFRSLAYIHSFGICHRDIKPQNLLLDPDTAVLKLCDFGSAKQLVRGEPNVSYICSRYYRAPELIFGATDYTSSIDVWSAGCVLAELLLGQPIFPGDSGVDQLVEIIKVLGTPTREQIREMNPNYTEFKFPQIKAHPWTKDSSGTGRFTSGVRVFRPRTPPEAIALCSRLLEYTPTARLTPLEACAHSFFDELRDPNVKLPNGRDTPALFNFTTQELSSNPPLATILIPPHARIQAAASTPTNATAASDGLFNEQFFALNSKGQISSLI
Chain of PKC isoform β-II (P05771 1-673 isoform P05771-2): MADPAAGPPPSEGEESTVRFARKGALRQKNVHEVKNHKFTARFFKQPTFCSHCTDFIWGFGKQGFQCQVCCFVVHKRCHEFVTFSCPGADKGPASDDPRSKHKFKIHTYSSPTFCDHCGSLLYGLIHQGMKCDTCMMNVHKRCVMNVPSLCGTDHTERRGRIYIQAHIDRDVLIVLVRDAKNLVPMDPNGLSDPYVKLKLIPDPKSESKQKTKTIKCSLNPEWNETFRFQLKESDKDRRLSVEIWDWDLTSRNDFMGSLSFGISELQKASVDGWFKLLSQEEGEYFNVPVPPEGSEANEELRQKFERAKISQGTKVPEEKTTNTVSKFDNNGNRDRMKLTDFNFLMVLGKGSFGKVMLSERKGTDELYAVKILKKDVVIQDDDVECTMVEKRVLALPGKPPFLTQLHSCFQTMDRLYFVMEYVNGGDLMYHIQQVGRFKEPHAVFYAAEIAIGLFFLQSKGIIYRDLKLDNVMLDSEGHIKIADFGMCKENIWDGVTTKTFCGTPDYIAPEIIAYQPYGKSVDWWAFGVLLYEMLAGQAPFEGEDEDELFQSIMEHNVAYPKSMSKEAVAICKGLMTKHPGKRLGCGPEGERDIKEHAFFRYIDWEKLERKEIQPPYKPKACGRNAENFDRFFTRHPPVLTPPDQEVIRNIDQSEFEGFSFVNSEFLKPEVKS

Row | IC50 (PKC isoform α) | IC50 (PKC isoform γ) | IC50 (PKC isoform β-II) | IC50 [1] | GSK-3β Assay Activity, percent at a single concentration ([1]; @ 1 μM) | Structure (SMILES)
1 | 910 nM | 4950 nM | 54 nM | 7 nM | – | O=C1NC(=O)C(c2cn(-c3cccnc3)c3ccccc23)=C1c1cn(CCn2ncnn2)c2ccccc12 [Compound 9, 3-[1-(3-pyridinyl)-1H-indol-3-yl]-4-[1-[2-(2H-tetrazol-2-yl)ethyl]-1H-indol-3-yl]-1H-pyrrole-2,5-dione]
2 | 64 nM | 274 nM | 6 nM | 25 nM | – | O=C1NC(=O)C(c2cn(-c3cccnc3)c3ccccc23)=C1c1cn(CCO)c2ccccc12 [Compound 1, 3-[1-(2-hydroxyethyl)-1H-indol-3-yl]-4-[1-(3-pyridinyl)-1H-indol-3-yl]-1H-pyrrole-2,5-dione]
3 | 228 nM | 429 nM | 15 nM | 8 nM | – | O=C1NC(=O)C(c2cn(-c3cncnc3)c3ccccc23)=C1c1cn(CCO)c2ccccc12 [Compound 2, 3-[1-(2-hydroxyethyl)-1H-indol-3-yl]-4-[1-(5-pyrimidinyl)-1H-indol-3-yl]-1H-pyrrole-2,5-dione]
4 | 457 nM | 784 nM | 23 nM | 31 nM | – | O=C1NC(=O)C(c2cn(-c3cnc4ccccc4c3)c3ccccc23)=C1c1cn(CCO)c2ccccc12 [Compound 3, 3-[1-(2-hydroxyethyl)-1H-indol-3-yl]-4-[1-(3-quinolinyl)-1H-indol-3-yl]-1H-pyrrole-2,5-dione]
5 | – | – | – | 24 nM | – | O=C1NC(=O)C(c2cn(-c3cccnc3)c3ccccc23)=C1c1cn(CCCO)c2ccccc12 [Compound 4, 3-[1-(3-hydroxypropyl)-1H-indol-3-yl]-4-[1-(3-pyridinyl)-1H-indol-3-yl]-1H-pyrrole-2,5-dione]
6 | 58 nM | – | 23 nM | – | – | CN(C)CCCn1cc(C2=C(c3cn(-c4ccccc4)c4ccccc34)C(=O)NC2=O)c2ccccc21 [Compound 6, 3-[1-[3-(dimethylamino)propyl]-1H-indol-3-yl]-4-(1-phenyl-1H-indol-3-yl)-1H-pyrrole-2,5-dione]
7 | – | – | – | 100 nM | – | Cn1cc(C2=C(c3cn(-c4cccnc4)c4ccccc34)C(=O)NC2=O)c2ccccc21 [Compound 8, 3-(1-methyl-1H-indol-3-yl)-4-[1-(3-pyridinyl)-1H-indol-3-yl]-1H-pyrrole-2,5-dione]
8 | – | – | – | – | 53% @ 1 μM | CN(C)CCCn1cc(C2=C(c3cn(-c4csc5ccccc45)c4ccccc34)C(=O)NC2=O)c2ccccc21 [Compound 5, 3-(1-benzo[b]thien-3-yl-1H-indol-3-yl)-4-[1-[3-(dimethylamino)propyl]-1H-indol-3-yl]-1H-pyrrole-2,5-dione]
9 | 3040 nM | 1440 nM | 60 nM | 116 nM | – | O=C1NC(=O)C(c2cn(-c3cncnc3)c3ccccc23)=C1c1cn(-c2cccnc2)c2ccccc12 [Compound 11, 3-[1-(3-pyridinyl)-1H-indol-3-yl]-4-[1-(5-pyrimidinyl)-1H-indol-3-yl]-1H-pyrrole-2,5-dione]
10 | – | – | – | 30 nM | – | Cn1cc(C2=C(c3cn(-c4cncnc4)c4ccccc34)C(=O)NC2=O)c2ccccc21 [Compound 7, 3-(1-methyl-1H-indol-3-yl)-4-[1-(5-pyrimidinyl)-1H-indol-3-yl]-1H-pyrrole-2,5-dione]
11 | 1010 nM | 4570 nM | 123 nM | 17 nM | – | O=C1NC(=O)C(c2cn(-c3cccnc3)c3ccccc23)=C1c1cn(CCn2cnnn2)c2ccccc12 [Compound 10, 3-[1-(3-pyridinyl)-1H-indol-3-yl]-4-[1-[2-(1H-tetrazol-1-yl)ethyl]-1H-indol-3-yl]-1H-pyrrole-2,5-dione]
